Source: patent publication US8551921B2, “Method for determining the toxicity of an environmental or chemical sample” (priority 2000, dated 2013)
“And” between values parts separate entries of the source, which are not always exact repeats. Identical values can stand only once. Counter-ions that a name gives are not always drawn. Like-named read-outs stand apart in the source and are kept apart here.

Legend:
[1] = tested on: Daphnia; conditions: IC50-values, established assay; cited from earlier work
[2] = tested on: E. coli; conditions: IC50-values, established assay; cited from earlier work
[3] = tested on: Aeromonas hydriphila HG3 (RV 5.1); conditions: Microbial Toxic Concentration, incubation time 16 h
Procedure: (§1) • dispense 150 μl of growth medium with indicator in each well • add a concentration gradient of the chemical to be tested to rows B-H in a MARA plate (i.e. an indicator device according to the present invention) • incubate for 16 h • read absorbance values; and • analyse with software.
(§2) Microbial responses to different chemicals was estimated by kinetic measurements of their growth using the Labsystem automated IEMS reader. A computer software that could monitor incubation temperatures, reading intervals, and automatically transfer OD data to a computer was developed. A growth medium containing 0.05% peptone, 0.011% bromothymol blue (BTB), 1% sodium chloride and 0.3% glucose was added to all wells. The glucose acts as a carbon source, and during growth the microorganism will break down the glucose and produce acids, that will turn the initially blue indicator to yellow. Each microplate contains 12 columns and 8 rows, and thus in each plate, 11 lyophilized microbial strains were used (one for each column, the 12th column was used as negative control). […] In order to avoid drying out of the plates during the incubation, one drop of sterile mineral oil was added to each well. The plate was then incubated in the IEMS spectrophotometer and the absorbance value from each well was measured every second hour during 48 h.
(§3) The overall toxicity of the chemical compound can be described either as the mean of all 11 MTC values (shown in column 12), or as the minimum value for all 11 microbial strains used in the assay (marked with bold in the table).

[4] = tested on: JG1 (strain of marine origin); conditions: Microbial Toxic Concentration, incubation time 16 h
Procedure: as §1, §2, §3

[5] = tested on: JG2 (strain of marine origin); conditions: Microbial Toxic Concentration, incubation time 16 h
Procedure: as §1, §2, §3

[6] = tested on: JG4 (strain of marine origin); conditions: Microbial Toxic Concentration; incubation time 16 h
Procedure: as §1, §2, §3

[7] = tested on: ObanF; conditions: Microbial Toxic Concentration; incubation time 16 h
Procedure: as §1, §2, §3

[8] = tested on: Saccaromyces ceriviciae (bakers yeast); conditions: Microbial Toxic Concentration, incubation time 16 h
Procedure: as §1, §2, §3

[9] = tested on: JG3 (strain of marine origin); assay: MARA indicator device toxic fingerprint, microorganism no. 3; conditions: Microbial Toxic Concentration; incubation time 16 h
Procedure: as §1, §2, §3

[10] = tested on: β-proteobacterium A22 (Kalmar 200); assay: MARA indicator device toxic fingerprint, microorganism no. 5; conditions: Microbial Toxic Concentration, incubation time 16 h
Procedure: as §1, §2, §3

[11] = tested on: microorganism no. 7; assay: MARA indicator device toxic fingerprint, microorganism no. 7; conditions: Microbial Toxic Concentration, incubation time 16 h
Procedure: as §1, §2, §3

[12] = tested on: E. coli MZ 480; assay: MARA indicator device toxic fingerprint, microorganism no. 8; conditions: Microbial Toxic Concentration, incubation time 16 h
Procedure: as §1, §2, §3

[13] = tested on: Staphylococcus epidermidis (Karin12); assay: MARA indicator device toxic fingerprint, microorganism no. 11; conditions: Microbial Toxic Concentration, incubation time 16 h
Procedure: as §1, §2, §3

[14] = tested on: 11 different microbial strains; conditions: for Toxic fingerprint: MTC value, Mean: mean of all 11 MTC values
Procedure: as §1, §2, §3
Concentrations are given in mg/ml.

[15] = tested on: Photobacterium phosphoreum; conditions: IC50-values, established assay; cited from earlier work
[16] = MTC value of the strain showing the highest sensitivity
[17] = mean MTC for the 11 microbial strains
[18] = 11 microbial strains (panel, species not named)

| Structure (SMILES) | Inhibitory concentrations by method: Daphnia [1] [mg/mL] | Inhibitory concentrations by method: E. coli [2] [mg/mL] | Toxic fingerprint: MTC value for microorganism no. 6 [3] | Toxic fingerprint: MTC value for microorganism no. 1 [4] | Toxic fingerprint: MTC value for microorganism no. 2 [5] | Toxic fingerprint: MTC value for microorganism no. 4 [6] | Toxic fingerprint: MTC value for microorganism no. 9 [7] | Toxic fingerprint: MTC value for microorganism no. 10 [8] | Toxic fingerprint: MTC value for microorganism no. 3 [9] | Toxic fingerprint: MTC value for microorganism no. 5 [10] | Toxic fingerprint: MTC value for microorganism no. 7 [11] | Toxic fingerprint: MTC value for microorganism no. 8 [12] | Toxic fingerprint: MTC value for microorganism no. 11 [13] | Toxic fingerprint: MTC value, Mean [14] | Inhibitory concentrations by method: MARA MTCmin [14, 16] [mg/mL] | Inhibitory concentrations by method: MARA MTCmean [14, 17] [mg/mL] | Inhibitory concentrations by method: Microtox [15] [mg/mL] | also measured |
| --- | --- | --- | --- | --- | --- | --- | --- | --- | --- | --- | --- | --- | --- | --- | --- | --- | --- | --- |
| CN1[C@@H]2CC[C@H]1CC(OC(=O)C(CO)c1ccccc1)C2.CN1[C@@H]2CC[C@H]1CC(OC(=O)C(CO)c1ccccc1)C2.O=S(=O)(O)O (some centres unmarked) [Atropin Sulphate] | 0.347 | 56.294 | – | – | – | – | – | – | – | – | – | – | – | – | – | – | – | – |
| [Cl-].[Cl-].[Mg+2] [Magnesium Chloride] | – | – | 13.500 | 28.800 | 9.660 | 7.500 | 8.830 | 22.700 | 7.420 | 14.800 | 12.100 | 24.100 | 4.580 | 13.900 | – | – | – | – |
| C=CC(N)=O [Acryl amide] | – | – | 2.480 and 2.810 | 0.965 and 0.853 | 2.440 and 1.810 | 2.100 and 2.510 | 13.900 and 11.000 | 6.620 and 6.970 | 4.280 and 3.370 | 5.740 and 3.240 | – | 17.700 and 23.300 | 8.300 and 10.300 | 4.700 and 4.690 | – | – | – | Toxic fingerprint: MTC value for microorganism no. 1 ([4]; listed as acrylamid): 0.9; Toxic fingerprint: MTC value for microorganism no. 8 ([12]; listed as acrylamid): 20 |
| C[C@H]1O[C@@H](O[C@H]2[C@@H](O)C[C@H](O[C@H]3[C@@H](O)C[C@H](O[C@H]4CC[C@@]5(C)[C@H](CC[C@@H]6[C@@H]5C[C@@H](O)[C@]5(C)[C@@H](C7=CC(=O)OC7)CC[C@]65O)C4)O[C@@H]3C)O[C@@H]2C)C[C@H](O)[C@@H]1O [Digoxin] | 0.192 | – | 0.531 | 1.040 | 0.937 | 0.942 | 0.201 | 2.510 | 0.481 | 0.927 | 0.921 | 0.310 | 0.104 | 0.8 and 0.770 | 0.104 | 0.770 | 1.129 | – |
| CSc1ccc2c(c1)N(CCC1CCCCN1C)c1ccccc1S2 (centres unmarked) [Tioridazin HCl] | – | – | 0.027 | – | 0.017 | – | – | 0.014 | – | 0.029 | 0.042 | 0.006 | 0.006 | 0.028 | 0.006 | 0.028 | – | – |
| Cn1c(=O)c2c(ncn2C)n(C)c1=O [Caffeine] | 0.158 | 15.426 | 2.190 | – | 1.010 | – | – | 0.790 | – | 0.973 | 2.930 | 3.430 | 6.060 | 2.250 | 0.788 | 2.085 | 2.129 | Toxic fingerprint: MTC value for microorganism no. 6 ([3]; listed as Coffein): 1.300; Toxic fingerprint: MTC value for microorganism no. 2 ([5]; listed as Coffein): 1.080; Toxic fingerprint: MTC value for microorganism no. 10 ([8]; listed as Coffein): 0.785; Toxic fingerprint: MTC value for microorganism no. 5 ([10]; listed as Coffein): 3.550; Toxic fingerprint: MTC value for microorganism no. 7 ([11]; listed as Coffein): 1.510; Toxic fingerprint: MTC value for microorganism no. 8 ([12]; listed as Coffein): 3.500; Toxic fingerprint: MTC value for microorganism no. 11 ([13]; listed as Coffein): 2.310; Toxic fingerprint: MTC value, Mean ([14]; listed as Coffein): 1.920 |
| [N-]=[N+]=[N-] [Sodium Azide] | – | – | 0.082 | 0.025 | 0.045 | 0.088 | 2.000 | 0.106 | 0.056 | 0.054 | 0.126 | 0.592 | 0.146 | 0.111 | – | – | – | – |
| Cc1ccccc1C(OCCN(C)C)c1ccccc1 (centres unmarked) [Orphenadrin HCl] | – | – | – | – | – | – | – | – | – | – | – | – | – | – | – | – | – | Toxic fingerprint: MTC value, Mean ([14]; HCl): 0.131 and 0.146 |
| [F-].[Na+] [Sodium Fluoride] | 0.636 | 10.547 | – | 3.290 and 2.220 | 2.660 and 2.930 | 6.040 and 6.560 | 22.700 and 20.100 | 5.650 and 4.130 | – | 9.500 and 15.000 | 6.450 and 7.890 | 11.400 and 14.600 | – | 6.930 and 9.170 | 4.890 | 8.050 | 9.843 | – |
| O=[N+]([O-])[O-].O=[N+]([O-])[O-].[Ba+2] [Barium nitrate] | 0.208 | – | 0.713 | 2.520 | 0.205 | 5.620 | 1.490 | 0.453 | 0.908 | 1.090 | 1.110 | 1.360 | 0.466 | 1.420 | 0.453 | 1.420 | 29.318 | mean toxicity levels (MTC values) ([14]; text to FIG. 7): 1.4 mg/L |
| Oc1ccccc1 [Phenol] | 0.007 | 2.258 | – | – | – | – | – | – | – | – | – | – | – | – | – | – | 0.133 | Inhibitory concentrations by method: MARA MTCmin [14]: 0.412 mg/mL; Inhibitory concentrations by method: MARA MTCmean [14, 18]: 0.831 mg/mL |
| [Cl-].[K+] [Potassium Chloride] | – | – | 27.100 | 28.200 | 29.400 | 17.000 | 65.400 | 16.000 | 10.600 | 20.100 | 67.300 | 62.300 | 31.300 | 29.800 | – | – | – | – |
| OCCO [Ethylene Glycol] | 74.625 | 270.945 | – | – | – | – | – | – | – | – | – | – | – | – | – | – | 167.064 | Inhibitory concentrations by method: MARA MTCmin [14]: 11.775 mg/mL; Inhibitory concentrations by method: MARA MTCmean [14, 18]: 28.400 mg/mL |
